According to patent publication US10092000B2, “Structure, synthesis, and applications for oligo phenylene ethynylenes (OPEs)” (STC.UNM, priority 2010, dated 2018):
Values joined by “and” are separate entries in the source; they are usually repeats but may differ in a detail not shown here. Identical values can stand only once. “Also recorded” adds a separate entry of the source.

Assays:
bacteriophage MS2 = experiment: Phage inactivation, phage titer (PFU), MS2; assay type: cell-based; details: 10 ug/ml, UV-light, 1 hour
Method: (§1) Bacteriophage Preparation and Titer. E. coli cells were grown in the standard Luria broth. The fresh E. coli culture was inoculated from an overnight culture followed by approximately three hours incubation at 37° C. to the exponential growth phase (O.D.600˜0.5). At this growth phase, the E. coli cells were collected by centrifuge and washed with Escherichia coli minimal medium (Glucose 5 g/L, Na2HPO4 6 g/L, KH2PO4 3 g/L, NH4Cl 1 g/L, NaCl 0.5 g/L, MgSO4, 0.12 g/L, CaCl2 0.01 g/L, pH 7.2) twice. The cell pellet was resuspended with minimal medium. The phage stock solutions were added into their corresponding bacterial host suspensions the phage-bacteria mixture incubated for 15 minutes at 37° C. for infection. The phage-bacteria mixture was transferred into fresh Escherichia coli minimal medium and incubated overnight for viral replication. […] The phage titer was determined by plaque forming units (PFU). […] After 6˜8 hours incubation, the plaque forming units were counted and phage solutions were diluted to 10^6˜10^7 PFU/ml with the minimal medium for further use.
(§2) Phage Inactivation. […] The viral inactivation ability was determined by phage titer as stated above and calculated by log (N0/N), where N is the PFU of the phage solution after exposure to CPEs/OPEs; N0 represents the PFU of corresponding negative control (without CPEs, OPEs or UV-irradiation). […]

[1] = Absorption and fluorescence spectroscopy; assay type: physicochemical; details: for absorbance intensity after 30 min relative to that measured at 1 min: 10 μM in H2O
Method: (§3) Photophysical study. For the absorption and fluorescence spectroscopy, we prepared a stock solution with concentration of 1 mM oligomer and 10% v/v solution of DMSO in H2O. 30 μL of the sonicated suspension of each EO-OPE-1 was diluted into 3 mL solution in a quartz cuvette to give a concentration of 10 μM. Absorption and fluorescence were performed on plate reader (SpectroMax M-5 microplate reader, Molecular Devices) at 24° C. Transient absorption spectra were recorded for EO-OPE-1 samples in both methanol and water. Transient absorption spectra were collected using laser systems that are described elsewhere 1, 2. The optical density was adjusted to 0.7 at the excitation wavelength (355 nm) with the laser energy being 6-7 mJ. Solutions were purged with argon for […] before making transient absorption spectroscopy measurements.

[2] = tested on: MS2 and T4 bacteriophages; experiment: Antiviral activity, general statement; assay type: cell-based
[3] = Transient absorption spectroscopy (triplet state); assay type: physicochemical
Method: as §3
Singlet oxygen generation. Excited triplet state (ETS) plays an essential role in the generation of ROS and 1O2. […] Another important point to note is that all members of EO-OPE-1 series underwent fast photobleaching in water during TA experiments (approximately 40-50% reduction in signal intensity). To minimize the error due to photobleaching, fresh samples were prepared and used in each run. […] On the other hand, the triplet lifetimes for EO-OPE-1(C3, A), EO-OPE-1 (C2, A), EO-OPE-1 (C3, S), and EO-OPE-1 (Th, C3, A) are 5.2 μs, 17.9 μs, 18.7 μs, and 7.2 μs, respectively. Based on the above discussions, we would expect C will give a higher yield of 1O2, with lower yields for EO-OPE-1 (C2, A), EO-OPE-1(C3, A), and EO-OPE-1 (C3, S).

Solubility in solvents = assay type: physicochemical
[4] = tested on: E.coli, S.epidermis, and S.aureus; experiment: Dead/live assays, biocidal activity stated without singling out a bacterium; assay type: cell-based; details: UV irradiation
Method: (§4) Dead/live assays were performed to test the biocidal activity of EO-OPE-1(C3, A), EO-OPE-1 (C2, A), EO-OPE-1 (C3, S) and EO-OPE-1 (Th, C3, A) against E.coli, S.epidermis, and S.aureus. E.coli, S.epidermis, and S.aureus were cultured in 50 mL of Difco™ Nutrient broth (LOT 4057492, Becton, Dickinson and Company, Sparks, Md. 21152 USA), Difco™ Nutrient broth (LOT 4057492, Becton, Dickinson and Company, Sparks, Md. 21152 USA), and BBL™ Brain Heart Infusion (LOT 8263271, Becton, Dickinson and Company, Sparks, Md. 21152 USA), respectively, for 18 h at 37° C. under shaking. The bacteria were collected by centrifuging 50 mL of culture at 4,000 rpm in an Eppendorf centrifuge for 15 min at 4° C. The pellet was re-suspended with the assistance of vortex in 25 mL of 0.85% NaCl solution and repelleted. The wash cycle was repeated twice. Bacterial concentrations were measured and normalized using a disposal hemocytometer (INCYTO Co., Ltd), counts being 2.5˜3.0×10^7/mL. The diluted bacteria suspension was added to 1.5 mL of black and transparent microtubes in aliquots of 500 μL for dark and light samples, respectively. Three groups of live controls were prepared with cells suspended in black microtubes, transparent microtubes, and quartz cuvettes at the same concentrations, but without chemicals. These bacteria samples were titrated by OPEs with various concentrations followed by staying in dark for dark samples/controls and exposing to UV irradiation in a photoreactor chamber for light samples/controls with certain duration.
(§5) Dead/live assays were carried out using two sets of stains: SYTO 9/Propidium iodide for E.coli and SYTO 24/Propidium iodide for S.epidermis and S.aureus. SYTO 9 and SYTO 24 are cell membrane permeant nucleic acid stains with green (˜498 nm for SYTO 9 and ˜515 nm for SYTO 24) fluorescence and used to stain both live and dead cells; Propidium iodide is a red-fluorescent nucleic acid stain that is membrane impermeable to viable cells but stains DNA or RNA of dead cells with comprised membranes and emits red (˜617 nm) fluorescence, indicating cell death. Upon the completion of the above treatment, a 1 to 1 ratio mixture of the two dyes was prepared and added into the samples (2.4 μL mixed dyes for 500 μL suspension) and incubated for 15 minutes in the dark. Bacteria were then examined under a 40× oil objective on a Zeiss LSM 510 Meta confocal laser scanning microscope and an Accuri C6 flow cytometer to identify and quantify those live and dead bacteria.

E.coli = experiment: Dead/live assay, biocidal activity against E.coli; assay type: cell-based; details: under 365 nm radiation
Method: (§6) Dead/live assays were performed to test the biocidal activity of EO-OPE-1(C3, A), EO-OPE-1 (C2, A), EO-OPE-1 (C3, S) and EO-OPE-1 (Th, C3, A) against E.coli, S.epidermis, and S.aureus. E.coli, S.epidermis, and S.aureus were cultured in 50 mL of Difco™ Nutrient broth (LOT 4057492, Becton, Dickinson and Company, Sparks, Md. 21152 USA), Difco™ Nutrient broth (LOT 4057492, Becton, Dickinson and Company, Sparks, Md. 21152 USA), and BBL™ Brain Heart Infusion (LOT 8263271, Becton, Dickinson and Company, Sparks, Md. 21152 USA), respectively, for 18 h at 37° C. under shaking. The bacteria were collected by centrifuging 50 mL of culture at 4,000 rpm in an Eppendorf centrifuge for 15 min at 4° C. […] Bacterial concentrations were measured and normalized using a disposal hemocytometer (INCYTO Co., Ltd), counts being 2.5˜3.0×10^7/mL. […]
(§7) Dead/live assays were carried out using two sets of stains: SYTO 9/Propidium iodide for E.coli and SYTO 24/Propidium iodide for S.epidermis and S.aureus. SYTO 9 and SYTO 24 are cell membrane permeant nucleic acid stains with green (˜498 nm for SYTO 9 and ˜515 nm for SYTO 24) fluorescence and used to stain both live and dead cells; Propidium iodide is a red-fluorescent nucleic acid stain that is membrane impermeable to viable cells but stains DNA or RNA of dead cells with comprised membranes and emits red (˜617 nm) fluorescence, indicating cell death. […]

S.epidermis = experiment: Dead/live assay, biocidal activity against S.epidermis; assay type: cell-based, Staphylococcus epidermis; details: under 365 nm radiation
Method: as §6, §7

S.aureus = experiment: Dead/live assay, biocidal activity against S.aureus; assay type: cell-based; details: for killing of S. aureus: under 365 nm radiation; for light activated death of S. aureus: light and dark conditions, 0.1 to 5 μg/mL, various time points (FIGS. 22-25)
Method: as §4, §5
Experiments similar to those described in Example 1 above were performed using TM and OPE1-DABCO against S. Aureus. FIG. 22 is a graph showing TM vs. 7×10^7/mL S. aureus under light and dark conditions at concentrations of 0.1 and 1 μg/mL and at various time points (5, 10, 15, 30, 45, and 60 minutes). FIG. 23 is a graph showing EO-OPE1-DABCO vs 6×10^7/mL S. aureus under light and dark conditions at different concentrations of 0.1, 1, and 5 μg/mL and at various time points. FIG. 24 is a graph showing EO-OPE1-DABCO vs S. Aureus under light and dark conditions at a concentration of 1 μg/mL and at various time points. FIG. 25 is a graph showing EO-OPE1-DABCO vs S. Aureus under light and dark conditions at different concentrations of 0.1 and 1 μg/mL and at various time points.

T4 phage = experiment: TEM of viral morphology damage, T4; parameters: species or system Bacteriophage T4; details: 50 ug/ml, dark and irradiated (FIGS. 33, 35, 37, 39)
Method: (§8) Transmission Electron Microscopy. High concentration of model viruses (˜10^11 PFU/ml for T4 phage, ˜10^12 PFU/ml for MS2 phage) and CPE/OPE (50 ug/ml) was used for TEM imaging (TEM images were generated in the UNM Electron Microscopy Shared Facility using a Hitachi H7500 transmission electron microscope.) Phage samples were prepared by adding 5 uL phage solutions onto carbon-coated copper grids (freshly cleaned by plasma cleaner) and standing for 2 minutes then rinsing with pure water. The negative stain, 2% aqueous solution of uranyl acetate, was adding onto the grids and standing for 2 minutes, the excess stain was removed by filter paper. The grid was dried in air.

bacteriophage T4 = experiment: Phage inactivation, phage titer (PFU), T4; assay type: cell-based; details: 10 ug/ml, in the dark, 1 hour
Method: as §1, §2

MS2 phage = experiment: TEM of viral morphology damage, MS2; parameters: species or system Bacteriophage MS2; details: 50 ug/ml, dark and irradiated (FIGS. 34, 36, 38, 40)
Method: as §8

| SMILES | absorbance intensity after 30 min relative to that measured at 1 min [1] | Fluorescence quantum yields(Φf)* ([1]; in water) | antiviral activity [2] | transient absorption (TA) intensity, comparison in words [3] | τ3/intensity in H2O ([3]; in H2O) | τ3/λmax(nm) in H2O ([3]; in H2O) [nm] | τ3/μs in H2O (triplet lifetime) ([3]; in H2O) | solubility in CH3OH (Solubility in solvents) | solubility in DMF and DMSO (Solubility in solvents) | solubility in water (Solubility in solvents) | light-induced biocidal activity [4] | killing of E. coli (E.coli) | killing of S. epidermis (S.epidermis) | killing of S. aureus (S.aureus) | light activated death of S. aureus (S.aureus) | further results |
| --- | --- | --- | --- | --- | --- | --- | --- | --- | --- | --- | --- | --- | --- | --- | --- | --- |
| C[N+](C)(C)CCCOc1ccc(C#Cc2ccc(C#Cc3ccc(OCCC[N+](C)(C)C)cc3)cc2)cc1.[I-].[I-] [EO-OPE-1 (C3, A)] | around 2 times | 0.52 ± 0.05 | significant antiviral activity | comparable | 0.07 | 545 | 17.9 μs | moderately soluble | quite soluble | poorly soluble | dramatic light-induced biocidal activity |  |  |  |  | inactivation of MS2 phage in the presence of UV irradiation (bacteriophage MS2): enhanced inactivation; Fluorescence quantum yields(Φf)* ([1]; in water; A)): 0.59; τ3/μs in H2O (triplet lifetime) ([3]; in H2O; A)): 5.2 μs |
| O=S(=O)([O-])CCCOc1ccc(C#Cc2ccc(C#Cc3ccc(OCCCS(=O)(=O)[O-])cc3)cc2)cc1.[Na+].[Na+] [EO-OPE-1 (C3, S)] | 1.5 times | 0.46 and 0.50 ± 0.07 |  | comparable | 0.06 | 543 |  | moderately soluble | quite soluble | poorly soluble | dramatic light-induced biocidal activity; also recorded: relatively poor light-induced biocidal activity | kill | kill | kill |  |  |
| C[N+](C)(C)CCOc1ccc(C#Cc2ccc(C#Cc3ccc(OCC[N+](C)(C)C)cc3)cc2)cc1.[I-].[I-] [EO-OPE-1 (C2, A)] | the same | 0.59 ± 0.05 |  | comparable | 0.065 | 541 | 17.9 μs and 18.7 μs | moderately soluble | quite soluble | poorly soluble | dramatic light-induced biocidal activity |  |  |  |  |  |
| C[N+](C)(C)CCCOc1ccc(C#Cc2ccc(C#Cc3ccc(OCCC[N+](C)(C)C)cc3)s2)cc1.[I-].[I-] [EO-OPE-1 (Th, C3, A)] | the same | 0.50 and 0.46 ± 0.02 | significant antiviral activity | highest TA intensity | 0.15 | 510 | 7.2 μs | moderately soluble | quite soluble | poorly soluble | dramatic light-induced biocidal activity | kill | kill | kill |  | morphology of treated T4 phage by TEM (T4 phage): serious damage; dark antiviral activity against T4 phage (bacteriophage T4): significant dark antiviral activity; morphology of treated MS2 phage by TEM (MS2 phage): Obvious morphology change; log killing against S. aureus (S.aureus; concentration as low as 5 ng/mL, half hour irradiation): 5 log |
| COc1cc(C#Cc2ccc(C#Cc3ccc(OCCC[N+](C)(C)C)cc3)cc2)cc(OC)c1OC.[I-] [TM] |  |  |  |  |  |  |  |  |  |  |  |  |  |  | light activated death is clearly demonstrated |  |
| CCCCCC[N+]12CC[N+](CCCOc3ccc(C#Cc4ccc(C#Cc5ccc(OCCC[N+]67CC[N+](CCCCCC)(CC6)CC7)cc5)cc4)cc3)(CC1)CC2.[Br-].[Br-].[Br-].[Br-] [EO-OPE-1-DABCO] |  |  |  |  |  |  |  |  |  |  |  |  |  |  | light activated death is clearly demonstrated |  |
